Experimental data: patent US20240317696A1, “ALKYL CARBOXYLIC ACID COMPOUNDS AND APPLICATION THEREOF” (MEDSHINE DISCOVERY INC., priority 2021, published 2024)

Assays:
sGC = sGC (Homo sapiens (Human), UniProt Q02153); experiment: cGMP expression test based on LNCap cells (sGC stimulatory activity); assay type: cell-based; conditions: ODQ present; for MEC: Minimum effective concentration required to stimulate cGMP production in LNCap cells (greater than three times the baseline value); for EC50: cGMP production in LNCap cells
Description: I. cGMP Expression Test Based on InCap Cells
(1) The compound was diluted to a concentration of 10 mM using DMSO.
(2) A serial dilution of the compound was performed, resulting in 10 different concentration levels of each compound. 100 nL of each diluted compound was added to a 96-well plate.
3) Preparation of LNCap Cells
(1) LNCap culture medium: RPMI1640 supplemented with 10% fetal bovine serum (FBS) and 1% double antibody
(9) Assay buffer was added, and the cell concentration was adjusted to 3×10^6/mL.
4) Preparation and Addition of ODQ Solution
(1) 10 mM ODQ stock solution was diluted at a ratio of 1:1000 and added to the cell solution.
(2) After thorough mixing, the solution was added to a microplate at 10 μL per well.
5) Preparation of cGMP Standard Curve
(1) 1 mM cGMP stock solution was diluted to 10 μM using assay buffer. 11 concentration gradients were created through 4-fold serial dilutions.
(2) The diluted cGMP was added to the microplate at 10 μL per well.
6) Addition of Assay Reagents and Plate Reading
(1) cGMP-D2 was transferred to a 384-well plate at 5 μL per well. Anti-cGMP cryptate was transferred to a […] at 5 μL per well. Centrifugation was performed at 1500 rpm for 1 minute.
(2) Incubation was carried out at room temperature for 1 hour.
(3) The plates were read using envision at 665/615 wavelengths.
(1) cGMP standard curve: A standard curve was generated using GraphPad Prism, based on the ratio of cGMP concentration to the 665/615 wavelength values.
(2) Conversion of HTRF (homogeneous time-resolved fluorescence) ratio (665/615) to cGMP concentration: In GraphPad Prism, the HTRF ratio (665/615) was copied to the ratio column of the cGMP standard curve. The analysis “Log inhibitor vs response-variable slope” was run, and the “interpolate” option was selected to convert the HTRF ratio (665/615) into cGMP concentration.
(3) Compound activation curve: A curve was generated using the “Log agonist vs response-variable slope” analysis method in GraphPad Prism, based on the converted cGMP concentration and compound concentration.

hepatocytes [1] = experiment: In vitro hepatocyte metabolic stability, mouse; assay type: in vitro ADME; conditions: test compound 1 μM, 0.5×10^6 cells/mL
Description: (§1) 1. Experimental Objective: The Aim of the Study was to Assess the Stability of the Compounds in Hepatocytes of Different Species.
(§2) A variety of 96-well precipitation plates were prepared and labeled as T0, T15, T30, T60, T90, T0-MC, T90-MC, and blank matrix, respectively. Revival medium and incubation medium were taken in advance and pre-warmed in a 37° C. water bath. Hepatocytes of different species, stored in a liquid nitrogen tank, were taken and immediately immersed in a 37° C. water bath for approximately 90 seconds. Once partially thawed, cells were transferred to centrifuge tubes containing 40 mL of revival medium, and gently inverted to resuspend the cells in the revival medium. At room temperature, cells were centrifuged at 100×g for 5 minutes. The supernatant was discarded, and the hepatocytes were resuspended in an appropriate volume of incubation medium. Viability was calculated using trypan blue staining. 198 μL of hepatocyte suspension (0.51×10^6 cells/mL) was added to pre-warmed incubation plates. For the control group, 198 μL of hepatocyte-free incubation medium was added to T0-MC and […] plates. All plates were pre-incubated for 10 minutes in a 37° C. incubator. […] All samples were mixed well and analyzed using LC/MS/MS methods.

hepatocytes [2] = experiment: In vitro hepatocyte metabolic stability, rat; assay type: in vitro ADME; conditions: test compound 1 μM, 0.5×10^6 cells/mL
Description: as §1, §2

[3] = In vivo pharmacokinetic property study in male Sprague Dawley rats
Description: Experimental objective: The aim of this study was to determine the pharmacokinetic parameters of the compound in male Sprague Dawley rats.
Sprague Dawley rats (male, 200 to 300 g, 7 to 9 weeks old, procured from Shanghai SLAC)
For this project, four male Sprague Dawley rats were used. Two rats in one group were administered the compound intravenously at a dosage of 2 mg/kg and a concentration of 0.4 mg/mL. Two rats in another group were administered the compound orally at a dosage of 10 mg/kg and a concentration of 1 mg/mL. Plasma samples were collected 0.083 (intravenous group only), 0.25, 0.5, 1, 2, 4, 6, 8, and 24 hours after administration. The collected samples were then analyzed using LC-MS/MS and data were collected. The collected analytical data were processed using Phoenix WinNonlin 6.3 software to calculate relevant pharmacokinetic parameters.

hepatocytes [4] = experiment: In vitro hepatocyte metabolic stability, human; assay type: in vitro ADME; conditions: test compound 1 μM, 0.5×10^6 cells/mL
Description: as §1, §2

sGC, sequence (Q02153 whole entry): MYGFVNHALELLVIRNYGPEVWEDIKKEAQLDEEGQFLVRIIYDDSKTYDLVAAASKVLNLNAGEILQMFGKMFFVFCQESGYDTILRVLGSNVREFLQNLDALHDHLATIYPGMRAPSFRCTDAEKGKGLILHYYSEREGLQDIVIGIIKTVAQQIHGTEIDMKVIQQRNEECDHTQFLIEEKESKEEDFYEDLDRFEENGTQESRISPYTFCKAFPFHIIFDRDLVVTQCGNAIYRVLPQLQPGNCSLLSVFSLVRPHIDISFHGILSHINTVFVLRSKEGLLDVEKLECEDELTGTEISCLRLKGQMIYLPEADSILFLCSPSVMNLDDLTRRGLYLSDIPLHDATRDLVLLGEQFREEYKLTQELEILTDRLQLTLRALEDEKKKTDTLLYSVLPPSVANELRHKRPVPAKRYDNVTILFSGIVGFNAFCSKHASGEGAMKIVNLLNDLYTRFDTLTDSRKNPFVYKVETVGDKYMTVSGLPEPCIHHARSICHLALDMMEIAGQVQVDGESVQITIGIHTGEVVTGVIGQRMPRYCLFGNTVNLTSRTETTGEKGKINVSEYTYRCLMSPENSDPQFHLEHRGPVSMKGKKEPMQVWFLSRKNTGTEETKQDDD
sGC, sequence (Q02108 whole entry partner): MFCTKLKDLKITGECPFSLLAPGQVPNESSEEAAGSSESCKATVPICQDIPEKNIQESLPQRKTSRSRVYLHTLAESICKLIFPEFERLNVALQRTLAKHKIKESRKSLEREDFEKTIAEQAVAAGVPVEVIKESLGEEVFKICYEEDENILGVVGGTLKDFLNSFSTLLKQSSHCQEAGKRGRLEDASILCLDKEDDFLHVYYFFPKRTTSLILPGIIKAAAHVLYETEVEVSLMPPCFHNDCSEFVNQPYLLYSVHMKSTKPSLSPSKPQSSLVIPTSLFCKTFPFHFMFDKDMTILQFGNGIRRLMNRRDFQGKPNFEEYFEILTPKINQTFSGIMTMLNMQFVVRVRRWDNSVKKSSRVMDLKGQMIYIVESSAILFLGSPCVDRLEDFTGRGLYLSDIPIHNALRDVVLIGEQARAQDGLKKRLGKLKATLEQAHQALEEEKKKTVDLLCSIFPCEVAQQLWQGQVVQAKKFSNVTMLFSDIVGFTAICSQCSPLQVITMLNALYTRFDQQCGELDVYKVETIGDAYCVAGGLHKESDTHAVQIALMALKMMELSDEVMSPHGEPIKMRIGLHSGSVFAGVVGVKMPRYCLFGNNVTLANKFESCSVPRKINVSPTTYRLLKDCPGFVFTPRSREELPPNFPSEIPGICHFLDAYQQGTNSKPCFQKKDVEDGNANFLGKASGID

MEC (sGC)	EC50 (sGC)	Compound	other results
4.20 nM	6.62 nM	C[C@H]([C@H](C(=O)Nc1cc(C(CC(=O)O)C2CCCC2)ccc1Cl)c1ccc(Cl)cc1)C(F)(F)F (stereo partly drawn) [WX001]	
2.20 nM	1.76 nM	C[C@H]([C@H](C(=O)Nc1cc([C@@H](CC(=O)O)C2CCCC2)ccc1Cl)c1ccc(Cl)cc1)C(F)(F)F [WX002]	
0.61 nM	3.74 nM	C[C@H]([C@H](C(=O)Nc1cc(C(CC(=O)O)C23CC(F)(C2)C3)ccc1Cl)c1ccc(Cl)cc1)C(F)(F)F (stereo partly drawn) [WX004]	
0.27 nM	2.06 nM	C[C@H]([C@H](C(=O)Nc1cc([C@@H](CC(=O)O)C23CC(F)(C2)C3)ccc1Cl)c1ccc(Cl)cc1)C(F)(F)F [WX005]	CLint (liver) (hepatocytes [1]): 610.4 mL/min/kg; T1/2 (hepatocytes [1]): 0.45 h; CLint (liver) (hepatocytes [2]): 154.7 mL/min/kg; T1/2 (hepatocytes [2]): 0.698 h; AUC ([3]; iv 2 mg/kg): 11.228 µM·h; Cl ([3]; iv 2 mg/kg): 5.47 mL/min/kg; T1/2 ([3]; iv 2 mg/kg): 3.83 h; Vdss ([3]; iv 2 mg/kg): 1.27 L/kg; AUC ([3]; po 10 mg/kg): 17.423 µM·h; T1/2 ([3]; po 10 mg/kg): 6.92 h; % F ([3]; po 10 mg/kg vs iv 2 mg/kg): 42.1%; CLint (liver) (hepatocytes [4]): 49.7 mL/min/kg; T1/2 (hepatocytes [4]): 1.29 h
0.65 nM	3.28 nM	C[C@H]([C@H](C(=O)Nc1cc(C(CC(=O)O)C23CC(F)(C2)C3)ccc1F)c1ccc(Cl)cc1)C(F)(F)F (stereo partly drawn) [WX007]	
1.76 nM	2.16 nM	Cc1ccc(C(CC(=O)O)C23CC(F)(C2)C3)cc1NC(=O)C(c1ccc(Cl)cc1)[C@@H](C)C(F)(F)F (stereo partly drawn) [WX010]	
1.39 nM	1.75 nM	Cc1ccc([C@@H](CC(=O)O)C23CC(F)(C2)C3)cc1NC(=O)[C@H](c1ccc(Cl)cc1)[C@@H](C)C(F)(F)F [WX011]	
1.22 nM	3.5 nM	COC12CC(C(CC(=O)O)c3ccc(Cl)c(NC(=O)[C@H](c4ccc(Cl)cc4)[C@@H](C)C(F)(F)F)c3)(C1)C2 (stereo partly drawn) [WX013]	
0.42 nM	1.65 nM	COC12CC([C@H](CC(=O)O)c3ccc(Cl)c(NC(=O)[C@H](c4ccc(Cl)cc4)[C@@H](C)C(F)(F)F)c3)(C1)C2 [WX014]	
27.85 nM	145 nM	C[C@H]([C@H](C(=O)Nc1cc([C@@H](CC(=O)O)[C@H]2CCCO2)ccc1Cl)c1ccc(Cl)cc1)C(F)(F)F [WX016]	
